In one data set the test system is HepG2.2.15 cells. Description: Cytotoxicity determination in HepG2.2.15 cells. It counts as cell-based. Conditions: 50% of the cells show a morphology comparable to the cell control. The source says: Before harvesting the supernatants to determine the antiviral effect, the HepG2.2.15 cells were examined under the light microscope or by means of biochemical detection methods (for example Alamar Blue stain or Trypan Blue stain) for cytotoxic changes.
Substance-induced cytotoxic or cytostatic changes in the HepG2.2.15 cells were detected, for example, under the light microscope as changes in cell morphology. Such substance-induced changes in the HepG2.2.15 cells compared with untreated cells were visible, for example, as cytolysis, vacuolation or altered cell morphology. […]
No cytotoxic changes were detectable at concentrations >10 μM of the compounds of the invention.

The test system of a further data set is hepatitis B virus. Description: Antiviral action on hepatitis B virus in HepG2.2.15 cells (HBV DNA dot-blot hybridization). It counts as cell-based. Particulars: 192 h, 8 days treatment, intra- or extracellular hepatitis B-specific DNA band reduced by 50% compared with untreated sample. The method, then:
The antiviral action of the compounds of the invention on hepatitis B virus was investigated by methods based on those described by M. A. Sells et al., Proc. Natl. Acad. Sci. 84, 1005–1009 (1987) and B. E. Korba et al., Antiviral Research 19, 55–70 (1992).
The antiviral tests were carried out in 96-well microtiter plates. The first vertical row of the plate received only growth medium and HepG2.2.15 cells. It served as virus control.
Stock solutions of the test compounds (50 mM) were initially dissolved in DMSO, and further dilutions were prepared in the HepG2.2.15 growth medium. The compounds according to the invention were usually pipetted in a test concentration of 100 μM (1st test concentration) in each case into the second vertical test row of the microtiter plate and subsequently diluted in twofold steps 2^10 times in growth medium plus 2% by weight of fetal calf serum (volume 25 μl).
Each well of the microtiter plate then contained 225 μl of HepG2.2.15 cell suspension (5×10^4 cells/ml) in growth medium plus 2% by weight of fetal calf serum. The test mixture was incubated at 37° C. and 5% CO2 (v/v) for 4 days.
The supernatant was then aspirated off and discarded, and the wells received 225 μl of freshly prepared growth medium. The compounds according to the invention were each added anew as 10-fold concentrated solution in a volume of 25 μl. The mixtures were incubated for a further 4 days.
The supernatant and/or cells were then harvested and sucked by means of a vacuum onto 96-well dot-blot chambers covered with a nylon membrane (in accordance with the manufacturer's information).
After the supernatants or lysed cells had been transferred to the nylon membrane of the blot apparatus (see above), the intra- or extracellular supernatants of the HepG2.2.15 cells were denatured (1.5 M NaCl/0.5 N NaOH), neutralized (3 M NaCl/0.5 M Tris HCl, pH 7.5) and washed (2×SSC). The DNA was then baked onto the membrane by incubating the filters at 120° C. for 2–4 hours.
Detection of the viral DNA from the treated HepG2.2.15 cells on the nylon filters was usually carried out with nonradioactive, digoxigenin-labeled hepatitis B-specific DNA probes, each of which was labeled with digoxigenin, purified and employed for the hybridization in accordance with the manufacturer's information.
The prehybridization and hybridization took place in 5×SSC, 1× blocking reagent, 0.1% by weight N-lauroylsarcosine, 0.02% by weight SDS and 100 μg of herring sperm DNA. The prehybridization took place at 60° C. for 30 minutes, and the specific hybridization with 20 to 40 ng/ml of the digoxigenized, denatured HBV-specific DNA (14 hours, 60° C.). The filters were then washed.
The immunological detection of the digoxigenin-labeled DNA took place in accordance with the manufacturer's information:
The filters were washed and prehybridized in a blocking reagent (in accordance with the manufacturer's information). Hybridization was then carried out with an anti-DIG antibody coupled to alkaline phosphatase for 30 minutes. After a washing step, the substrate of alkaline phosphatase, CSPD, was added, incubated with the filters for 5 minutes, then packed in plastic film and incubated at 37° C. for a further 15 minutes. The chemiluminescence of the hepatitis B-specific DNA signals was visualized by exposing the filters to an X-ray film (incubation depending on signal strength: 10 minutes to 2 hours).
The half-maximum inhibitory concentration (IC50, 50% inhibitory concentration) was determined as the concentration at which the intra- or extracellular hepatitis B-specific band was reduced by the compound according to the invention by 50% compared with an untreated sample.

SMILES strings stand for the structures.

The melting point is the temperature of the solid-liquid transition. `COC(=O)C1=C(CN2CCCC2)NC(c2ncc(F)cc2F)=NC1c1ccc(F)cc1Br` (stereo not drawn) displayed a melting point of 161 to 162 °C.

In the case of `COC(=O)C1=C(CN2CCOCC2)NC(c2ncc(F)cc2F)=NC1c1ccc(Cl)cc1Cl` (stereo not drawn), the melting point lay within 225 to 227 °C. The same measure, in the same setting: the result for `COC(=O)C1=C(CN2CCCC2)NC(c2ncc(F)cc2F)=NC1c1ccc(Cl)cc1Cl` (stereo not drawn) reads 168 to 170 °C; that for `COC(=O)C1=C(CN2CCSC2)NC(c2ncc(F)cc2F)=NC1c1ccc(Cl)cc1Cl` (stereo not drawn), 189 to 191 °C; that for `CCN(C)CC1=C(C(=O)OC)C(c2ccc(Cl)cc2Cl)N=C(c2ncc(F)cc2F)N1` (stereo not drawn), 142 to 143 °C. In turn, `COC(=O)C1=C(CN2CCSCC2)NC(c2ncccc2F)=NC1c1ccc(F)cc1Br` (stereo not drawn) had a melting point of 128 to 131 °C.

`COC(=O)C1=C(CN2CCSC2)NC(c2ncccc2F)=NC1c1ccc(Cl)cc1Cl` (stereo not drawn) displayed a melting point of 175 °C.

As for `COC(=O)C1=C(CN2CCSCC2)NC(c2ncccc2F)=NC1c1ccc(Cl)cc1Cl` (stereo not drawn), the melting point was determined as 137 °C. The same measure, in the same setting: the same measure for `COC(=O)C1=C(CN2CCSC2)NC(c2ncccc2F)=NC1c1ccc(F)cc1Br` (stereo not drawn): 172 to 173 °C. Still for that read-out and setting: the same measure for `COC(=O)C1=C(CN(CCO)CCO)NC(c2ncccc2F)=NC1c1ccc(Cl)cc1Cl` (stereo not drawn): 155 °C; for `COC(=O)C1=C(CN2CCSC2)NC(c2ncc(F)cc2F)=NC1c1ccc(F)cc1Br` (stereo not drawn): 183 to 184 °C. The same measure, in the same setting: the same measure for `COC(=O)C1=C(CN2CCSCC2)NC(c2ncc(F)cc2F)=NC1c1ccc(F)cc1Br` (stereo not drawn): 173 to 174 °C. Regarding `COC(=O)C1=C(CN(CCO)CCO)NC(c2ncc(F)cc2F)=NC1c1ccc(Cl)cc1Cl` (stereo not drawn), the melting point was 144 to 145 °C. Still for that read-out and setting: the result for `COC(=O)C1=C(CN(C)CCO)NC(c2ncc(F)cc2F)=NC1c1ccc(F)cc1Br` (stereo not drawn) reads 114 to 116 °C; that for `COC(=O)C1=C(CN(C)CCO)NC(c2ncccc2F)=NC1c1ccc(F)cc1Cl` (stereo not drawn), 117 to 119 °C. Still for that read-out and setting: the result for `COC(=O)C1=C(CN2CCSCC2)NC(c2ncccc2F)=NC1c1ccc(F)cc1Cl` (stereo not drawn) reads 145 °C; that for `COC(=O)C1=C(CN2CCSC2)NC(c2ncccc2F)=NC1c1ccc(F)cc1Cl` (stereo not drawn), 163 to 164 °C. Still for that read-out and setting: the same measure for `COC(=O)C1=C(CN(CCO)CCO)NC(c2ncccc2F)=NC1c1ccc(F)cc1Cl` (stereo not drawn): 119 to 120 °C; for `COC(=O)C1=C(CN(CCO)Cc2ccccc2)NC(c2ncccc2F)=NC1c1ccc(F)cc1Br` (stereo not drawn): 121 °C. In turn, `COC(=O)C1=C(CN(CCO)Cc2ccccc2)NC(c2ncc(F)cc2F)=NC1c1ccc(F)cc1Br` (stereo not drawn) gave a melting point of 135 °C.

`COC(=O)C1=C(CN(CCO)Cc2ccccc2)NC(c2ncccc2F)=NC1c1ccc(F)cc1Cl` (stereo not drawn) registered a melting point of 128 °C.

For `COC(=O)C1=C(CN2CCSC2)NC(c2nccs2)=NC1c1ccc(Cl)cc1Cl` (stereo not drawn), the melting point lay within 169 to 170 °C.

Take `COC(=O)C1=C(CN(CCO)CCO)NC(c2nccs2)=NC1c1ccc(Cl)cc1Cl` (stereo not drawn): the melting point was 133 °C.

Consider `COC(=O)C1=C(CN(C)CCO)NC(c2nccs2)=NC1c1ccc(Cl)cc1Cl` (stereo not drawn), for which the melting point came to 132 °C. Still for that read-out and setting: the result for `COC(=O)C1=C(Cn2ccnc2)NC(c2ncc(F)cc2F)=NC1c1ccc(F)cc1Br` (stereo not drawn) reads 123 to 126 °C; that for `COC(=O)C1=C(CN2CCCCC2)NC(c2ncccc2F)=NC1c1ccc(Cl)cc1Cl` (stereo not drawn), 155 to 156 °C.

For orientation: IC50 means the concentration that inhibits the measured activity by half. The low end stands for greater potency, the high end for weaker potency. In turn, `COC(=O)C1=C(CCN2CCSC2)NC(c2ncc(F)cc2F)=NC1c1ccc(F)cc1Cl` (stereo not drawn) [Example 2, Methyl 4-(2-chloro-4-fluorophenyl)-2-(3,5-difluoro-2-pyridyl)-6-[2-(1,3-thiazolidin-3-yl)-ethyl]-1,4-dihydropyrimidine-5-carboxylate] registered a Tox50 in the data set with HepG2.2.15 cells of 38 µM. The IC50 with hepatitis B virus was determined as 400 nM. `COC(=O)C1=C(CN2CCOCC2)NC(c2ncc(F)cc2F)=N[C@H]1c1ccc(F)cc1Cl` [Example 5] yielded a melting point of 178 °C. Also, the Tox50 in the data set with HepG2.2.15 cells turned out to be 40 µM. Moreover, the IC50 with hepatitis B virus was determined as 2 nM.

With `COC(=O)C1=C(CN2CCOCC2)NC(c2ncccc2F)=NC1c1ccc(Cl)cc1Cl` (stereo not drawn) [Example 7], the melting point was in the range of 182 to 183 °C. Further, the Tox50 in the data set with HepG2.2.15 cells stood at 25 µM. In the data set on hepatitis B virus, this compound gave an IC50 of 25 nM.

`COC(=O)C1=C(CN2CCOCC2)NC(c2ncc(F)cc2F)=NC1c1ccc(F)cc1Br` (stereo not drawn) [Example 9] displayed a melting point of 216 to 218 °C. In the data set on HepG2.2.15 cells, the Tox50 turned out to be 17 µM. Besides, in the data set with hepatitis B virus, half-maximal inhibition (IC50) required 7 nM. As for `COC(=O)C1=C(CN2CCSCC2)NC(c2ncc(F)cc2F)=N[C@H]1c1ccc(F)cc1Cl` [Example 11], the Tox50 in the data set with HepG2.2.15 cells is greater than 8 µM. Further, in the data set with hepatitis B virus, half-maximal inhibition (IC50) was put at 40 nM. Take `COC(=O)C1=C(CN2CCSCC2)NC(c2ncc(F)cc2F)=NC1c1ccc(Cl)cc1Cl` (stereo not drawn) [Example 15]: the melting point was 166 to 168 °C. Besides, the Tox50 in the data set with HepG2.2.15 cells was found to be 3 µM. The same compound showed an IC50 in the data set with hepatitis B virus of 50 nM. For `COC(=O)C1=C(CN2CCOCC2)NC(c2ncccc2F)=NC1c1ccc(F)cc1Br` (stereo not drawn) [Example 24] the same measures were 156 to 158 °C, 80 µM and 20 nM. The corresponding values for `COC(=O)C1=C(CN2CCOCC2)NC(c2ncc(F)cc2F)=N[C@H]1c1ccc(F)cc1Br` [Example 31] are 189 to 190 °C, 63 µM and 2 nM. The corresponding values for `COC(=O)C1=C(CN2CCOCC2)NC(c2ncccc2F)=NC1c1ccc(F)cc1Cl` (stereo not drawn) [Example 34] are 161 to 163 °C, 60 µM and 9 nM. Turning to `COC(=O)C1=C(CN2CCOCC2)NC(c2nccs2)=NC1c1ccc(Cl)cc1Cl` (stereo not drawn) [Example 45], the melting point was determined as 149 °C. The Tox50 in the data set with HepG2.2.15 cells came out at 34 µM. This compound gave a half-inhibitory concentration (IC50) in the data set on hepatitis B virus of 2 nM.

The values above are taken from patent US7074784B2, “Medicaments against viral diseases” (priority 2000, dated 2006).
